Measurements from patent publication US9586943B2, “Bilaterally-substituted tricyclic compounds for the treatment of human immunodeficiency virus type-1 (HIV-1) infection and other diseases” (CENTRO DE INVESTIGACIÓN PRINCIPE FELIPE, priority 2013, dated 2017).
Where two headings read alike, the source gives them in different places. Numbered stars: 1 amine (or outer) side, 2 acyl side, 3 side chain; on linkers, the order of the positions; unused ones are H or OH. Suc = O=C(CCC(=O)[*:2])[*:1]

Columns and labels:
[1] = test system: Staphilococcus aureus (ATCC 35556); assay: Disk diffusion assay (Kirby-Bauer), S. aureus; format: cell-based; conditions: disk potency 20 μg, 8 mm discs, 16-18 hours at 37° C.
[2] = test system: Escherichia coli (ATCC 53868); assay: Disk diffusion assay (Kirby-Bauer), E. coli; format: cell-based; conditions: disk potency 20 μg, 8 mm discs, 16-18 hours at 37° C.
TARc hairpin = assay: SPR binding specificity relative to control TARc hairpin; design: species or system HIV-1
Experimental: (§1) The interaction of these biphenyl and terphenyl compounds with the RRE RNA hairpin (SEQ. ID. No 1) was analysed using surface plasmon resonance (SPR) experiments(19). In addition to the RRE, two control RREc (SEQ. ID. No 2) and TARc (SEQ. ID. No 3) hairpins were also immobilised on the chips. In the RREc hairpin the internal loop forming the Rev high-affinity binding site is replaced with a G:G opposition, whereas in the TARc hairpin this loop is substituted with the HIV-1 Tat-binding UCU bulge(20). In this way, applicants could simultaneously assess the interaction of each ligand with RRE, RREc and TARc, obtaining important information about binding selectivity. In addition, the SPR methodology allows deduction of binding stoichiometries, which are likewise related to the specificity of the interaction between a ligand and a given RNA species. These are key considerations in the nucleic acid recognition field(4, 5, 14).
(§2) The Surface Plasmon Resonance (SPR) experiments were carried out at 25° C. with a Biacore T100 optical biosensor system, 4-channel streptavidin-derivatized Series S SA chips, and either 10 mM MES (pH 6.25), 150 mM NaCl, 1 mM EDTA and 0.005% P20 or 10 mM HEPES pH 7.4, 150 mM NaCl, 3 mM EDTA and 0.005% P20 aqueous solutions as mobile phases. After immobilizing approximately 300 response units (RU) of the RRE, RREc and TARc RNA hairpins on the chips, the compounds were injected during 10-minute periods at a flow rate of 20 μL/min and at concentrations generally ranging from 0.01 μM to 100.0 μM, and then allowed to dissociate for 10 more minutes. The RNA surfaces were regenerated with solutions containing 0.5 to 1 M NaCl and 10 to 100 mM NaOH, depending on the ligand.
(§3) RNA-ligand SPR equilibrium dissociation constants (Kd) were determined by fitting the sensorgrams to one-site or two-site equations:
[formula] [formula] where RU is the response in the steady-state region of the sensorgrams, C is the concentration of free compound in equilibrium with the complex, RUmax is the maximum response and RI is an offset term accounting for the bulk refractive index contribution of the sample. In these models, Kd, RUmax and RI are adjustable parameters, and the stoichiometry of each binding site was determined by comparing the fitted RUmax values with the predicted ones, calculated from the molecular weights of RNA and compound and the amount of RNA in the flow cell(32). The two-site equation was only utilized if it provided a clear curve-fitting improvement over the one-site model. […] All SPR experiments were double-referenced(33).

[3] = molecular target: RRE RNA hairpin (internal loop IIB); assay: SPR analysis of interaction with RRE RNA hairpin; format: binding, HIV-1
[4] = Cellular viability (CellTiter Glo); format: cell-based; conditions: human, MT-2 cells; 48 h, CellTiter Glo; read-out: CC50 (celular viability)
RREc hairpin = assay: SPR binding specificity relative to control RREc hairpin; design: species or system HIV-1
Experimental: as §1, §2, §3
[formula] [formula] where RU is the response in the steady-state region of the sensorgrams, C is the concentration of free compound in equilibrium with the complex, RUmax is the maximum response and RI is an offset term accounting for the bulk refractive index contribution of the sample. In these models, Kd, RUmax and RI are adjustable parameters, and the stoichiometry of each binding site was determined by comparing the fitted RUmax values with the predicted ones, calculated from the molecular weights of RNA and compound and the amount of RNA in the flow cell(32). The two-site equation was only utilized if it provided a clear curve-fitting improvement over the one-site model. The specificity of the RRE interaction was quantified by calculating the Kd(RREc)/Kd(RRE) and […] ratios. All SPR experiments were double-referenced(33).

[5] = molecular target: RRE-Rev34-50 interaction (RRE hairpin and frevp); assay: Fluorescence polarization displacement assay of the RRE-Rev34-50 interaction; format: binding, HIV-1
HIV-1 (NL4.3-Ren) = assay: microbe, parasite or virus in culture; format: cell-based; conditions: for EC50: Human immunodeficiency virus 1, 48 h, read-out: EC50 (NL4.3-Ren)
MT-2 cells = assay: Cellular viability (CellTiter Glo); format: cell-based
RRE hairpin = assay: Two-dimensional NMR (TOCSY) titration of the RRE hairpin; format: binding, HIV-1; conditions: D2O, pH 6.0
[6] = 25° C., pH 6.3, high affinity site when two-site model, JB-399 and IIS-530: ligand range 0.1-25 μM, read-out: Kd(RRE)
[7] = read-out: IC50 (RRE-Rev 50% inhibitory concentration), fluorescence polarization, 25° C., 60 nM RRE and 10 nM frevp
[8] = 25° C., pH 7.4, high affinity site when two-site model, footnote d compounds: ligand range 0.1-25 μM, read-out: Kd(RRE)

| Compound | disk susceptibility of S. aureus (diameter of the inhibition area) [1] | disk susceptibility of E. coli (diameter of the inhibition area) [2] | Kd(TARc)/Kd(RRE) (TARc hairpin; 25° C., pH 6.3) | Kd [3, 6] [µM] | CC50 at 48 h [4] [µM] | IC50 [5, 7] [µM] | EC50 (HIV-1 (NL4.3-Ren)) [µM] | also measured |
| --- | --- | --- | --- | --- | --- | --- | --- | --- |
| CC1(C)S[C@@H]2[C@H](NC(=O)[C@H](N)c3ccccc3)C(=O)N2[C@H]1C(=O)O [Ampicillin, ampicillin] | 38.1 ± 1.6 | 25.6 ± 1.7 |  |  |  |  |  |  |
| COc1cc(CCN)c(-c2ccc(-c3cc(CCN)c(OCc4ccccc4)c(CCN)c3)c(OC)c2)c(CCN)c1 [IIS-311, 2,2′,2″,2′″-(4″-(benzyloxy)-3′,4-dimethoxy-[1,1′:4′,1″-terphenyl]-2,3″,5″,6-tetrayl)tetraethanamine] |  |  | 3.2 | 9.4 ± 5.7 | > 100 | 162 ± 118 | > 100 | Kd(RREc)/Kd(RRE) (RREc hairpin; 25° C., pH 6.3): 4.9 |
| COc1cc(CCN)c(-c2ccc(-c3cc(CCN)c(OCc4ccc(C(F)(F)F)cc4)c(CCN)c3)c(OC)c2)c(CCN)c1 [IIS-478, 2,2′,2″,2′″-(3′,4-dimethoxy-4″-((4-(trifluoromethyl)benzyl)oxy)-[1,1′:4′,1″-terphenyl]-2,3″,5″,6-tetrayl)tetraethanamine] | inactive | inactive |  |  | > 100 | 232 ± 32.7 | > 100 | Kd(TARc)/Kd(RRE) (TARc hairpin; 25° C., pH 7.4): 9.6; Kd [3, 8]: 14 ± 5.1 µM; Kd(RREc)/Kd(RRE) (RREc hairpin; 25° C., pH 7.4): 10.3 |
| COc1cc(CCN)c(-c2ccc(-c3cc(CCN)c(OCC4CCCCC4)c(CCN)c3)c(OC)c2)c(CCN)c1 [IIS-530, 2,2′,2″,2′″-(4″-(cyclohexylmethoxy)-3′,4-dimethoxy-[1,1′:4′,1″-terphenyl]-2,3″,5″,6-tetrayl)tetraethanamine] |  |  | 4.0 | 46.2 ± 32 | > 100 | 75.5 ± 39.9 | > 100 | Kd(RREc)/Kd(RRE) (RREc hairpin; 25° C., pH 6.3): 1.3 |
| CCc1cc(-c2c(CCN)cc(OC)cc2CCN)ccc1-c1cc(CCN)c(O)c(CCN)c1 [IIS-792, 2″,3,5,6″-tetrakis(2-aminoethyl)-2′-ethyl-4″-methoxy-[1,1′:4′,1″-terphenyl]-4-ol] |  |  |  |  | > 100 | 93.6 ± 24.4 | 46.3 | Kd(TARc)/Kd(RRE) (TARc hairpin; 25° C., pH 7.4): 1.6; Kd [3, 8]: 8.1 ± 1.8 µM; cellular toxicity (in words) (MT-2 cells): no cellular toxicity; Kd(RREc)/Kd(RRE) (RREc hairpin; 25° C., pH 7.4): 1.2; inhibition of HIV-1 replication (in words) (HIV-1 (NL4.3-Ren)): inhibited HIV-1 replication |
| CCc1cc(-c2c(CCN)cc(OC)cc2CCN)cc(CC)c1-c1cc(CCN)c(O)c(CCN)c1 [IIS-806, 2″,3,5,6″-Tetrakis(2-aminoethyl)-2′,6′-diethyl-4″-methoxy-(1,1′:4′,1″-terphenyl)-4-ol chlorhydrate] |  |  |  |  | > 100 | 56.4 ± 13.5 | 64.1 | Kd(TARc)/Kd(RRE) (TARc hairpin; 25° C., pH 7.4): 1.3; RRE interaction by NMR chemical shift perturbation (in words) (RRE hairpin): greatest RNA chemical shift variations; Kd [3, 8]: 8.1 ± 1.1 µM; cellular toxicity (in words) (MT-2 cells): no cellular toxicity; Kd(RREc)/Kd(RRE) (RREc hairpin; 25° C., pH 7.4): 1.1; inhibition of HIV-1 replication (in words) (HIV-1 (NL4.3-Ren)): inhibited HIV-1 replication |
| COc1cc(CCN)c(-c2cc(CCN)c(O)c(CCN)c2)c(CCN)c1 [JB-398, 2′,3,5,6′-tetrakis(2-aminoethyl)-4′-methoxy-[1,1′-biphenyl]-4-ol] |  |  | 3.7 | 31.1 ± 5 | > 100 |  | > 100 | RRE interaction by NMR chemical shift perturbation (in words) (RRE hairpin): weak; IC50 ([5]; fluorescence anisotropy, read-out: IC50 (RRE-Rev34-50 inhibition)): 22.1 µM |
| COc1cc(CCN)c(-c2ccc(-c3cc(CCN)c(O)c(CCN)c3)cc2)c(CCN)c1 [JB-399, 2″,3,5,6″-tetrakis(2-aminoethyl)-4″-methoxy-[1,1′:4′,1″-terphenyl]-4-ol] |  |  | 11.7 | 14.4 ± 6.8 | > 100 | 23.4 ± 3.6 | > 100 |  |
| NC[C@H]1O[C@H](O[C@H]2[C@H](O)[C@@H](O[C@H]3O[C@H](CO)[C@@H](O)[C@H](N)[C@H]3O)[C@H](N)C[C@@H]2N)[C@H](O)[C@@H](O)[C@@H]1O [Kanamycin A, kanamycin A] | 16.5 ± 1.1 | 22.0 ± 2.0 |  |  |  |  |  |  |
| NC[C@H]1O[C@H](O[C@H]2[C@H](O)[C@@H](O[C@H]3O[C@H](CO)[C@@H](O)[C@H](N)[C@H]3O)[C@H](N)C[C@@H]2N)[C@H](N)[C@@H](O)[C@@H]1O [Kanamycin B, kanamycin B] | 16.7 ± 1.2 | 20.0 ± 2.1 |  |  |  |  |  |  |
| COc1cc(CCN)c(-c2c(CCN)cc(OC)cc2CCN)c(CCN)c1 [SC-30, 2,2′,2″,2′″-(4,4′-dimethoxy-[1,1′-biphenyl]-2,2′,6,6′-tetrayl)tetraethanamine] | inactive | inactive |  | > 100 | > 100 | 309 ± 68.9 | 50 to 100 | RRE interaction by NMR chemical shift perturbation (in words) (RRE hairpin): unspecific |
| NC[C@H]1O[C@H](O[C@H]2[C@H](O)[C@@H](O[C@H]3O[C@H](CO)[C@@H](O)[C@H](N)[C@H]3O)[C@H](N)C[C@@H]2N)[C@H](N)C[C@@H]1O [Tobramycin, tobramycin] | 17.6 ± 0.8 | 18.8 ± 2.2 |  |  |  |  |  |  |
| succynyl-TRQARRNRRRRWRERQRAAAAR-amide (Suc-TRQARRNRRRRWRERQRAAAAR-NH2; SMILES C[C@H](NC(=O)[C@H](C)NC(=O)[C@H](C)NC(=O)[C@H](CCCNC(=N)N)NC(=O)[C@H](CCC(N)=O)NC(=O)[C@H](CCCNC(=N)N)NC(=O)[C@H](CCC(=O)O)NC(=O)[C@H](CCCNC(=N)N)NC(=O)[C@H](Cc1c[nH]c2ccccc12)NC(=O)[C@H](CCCNC(=N)N)NC(=O)[C@H](CCCNC(=N)N)NC(=O)[C@H](CCCNC(=N)N)NC(=O)[C@H](CCCNC(=N)N)NC(=O)[C@H](CC(N)=O)NC(=O)[C@H](CCCNC(=N)N)NC(=O)[C@H](CCCNC(=N)N)NC(=O)[C@H](C)NC(=O)[C@H](CCC(N)=O)NC(=O)[C@H](CCCNC(=N)N)NC(=O)[C@@H](NC(=O)CCC(=O)O)[C@@H](C)O)C(=O)N[C@@H](C)C(=O)N[C@@H](CCCNC(=N)N)C(N)=O) [revp, reference compound] |  |  |  |  |  |  |  | Kd(TARc)/Kd(RRE) (TARc hairpin): 4.4; Kd ([3]; one-site model, read-out: equilibrium dissociation constant Kd (RRE)): 0.0042 ± 0.0034 µM; Kd(RREc)/Kd(RRE) (RREc hairpin): 14.5; Ki ([5]; calculated from IC50, read-out: Ki inhibition constant): 0.0041 ± 0.0008 µM |
